Values joined by “and” are separate entries in the source; they are usually repeats but may differ in a detail not shown here. Identical values can stand only once.
Assays:
[1] = test system: hPSC-CMs; set-up: method as in PMID 30853557; settings: cited from earlier work
[2] = test system: engineered human heart tissue; set-up: method as in PMID 30853557; settings: cited from earlier work
[3] = test system: 376 kinases; set-up: method as in PMID 30853557; settings: cited from earlier work
[4] = plasma levels of DMX-5804 in swine during DMX-10001 infusion (efficacy study); format: in vivo, pig
Protocol: Compound concentrations after dosing were measured as follows by liquid chromatography–mass spectrometry (Pharmidex, London, UK). To 50 µL aliquots of plasma was added 200 µL of internal standard solution (methanol containing 500 ng/mL tolbutamide). Samples were then mixed (150 rpm, 20 min) and centrifuged (3000 rpm, 15 min). 75 µL of the resulting supernatant was added to 75 µL 10 mM ammonium acetate + 0.5% ammonia) and mixed (450 rpm, 15 min). Calibration standards covering the expected concentration range were prepared by spiking analyte into control matrix, with extraction and analysis in the same way as the plasma samples.
Analysis was done by liquid chromatography–mass spectrometry using a Shimadzu Nexera X2 ultra-high-pressure liquid chromatography system coupled to a Shimadzu LCMS 8060 triple quadruple mass spectrometer (Shimadzu, Milton Keynes, UK) with Waters Acquity BEH C18 (50 × 2.1)mm, 1.7 µm column (Waters, Elstree, UK) and mobile phase components 10 mM ammonium acetate + 0.5% ammonia (A) and methanol + 0.5% ammmonia (B). Gradient was 0–0.5 min 30% B; 0.5 to 2.5 min increase to 80% B; 2.5–2.6 min increase to 98% B; 2.6–3 min 98% B; 3–3.1 min decrease to 30% B; 3.1–3.5 min 30% B. Flow rate was 0.4 mL/min. Injection volume was typically 5 µL. Detection was by multiple reaction monitoring, DMX-5804 361.9 > 304.1 (positive ion), DMX-10001 470.1 > 258.0 (negative ion), and tolbutamide 271.0 > 91.0 (positive ion). Retention times were DMX-5804 2.9 min, DMX-10001 2.1 min, and tolbutamide 1.8 min. Data processing was done by Shimadzu LabSolutions Software (Shimadzu, Milton Keynes, UK).
Results were corrected for plasma protein binding by rapid equilibrium dialysis to calculate free drug levels, and were subjected to iterative computer modeling (XenoGesis, Alderley Park, UK) using Phoenix64 WinNonlin (Certara, Princeton, NJ), to devise the infusion protocol.
At several time-points (see Fig. 2), blood samples were taken in lithium-heparin-coated tubes (BD, Plymouth, UK) to analyze plasma levels of DMX-10001 (pro-drug) and DMX-5804 (active compound) and in EDTA-coated tubes (BD, Plymouth, UK) to measure heart-type fatty acid binding protein (hFABP). All blood samples were kept on ice immediately after withdrawal and were centrifuged for 10 min at 3000 rpm and 4 °C within 6 h. Plasma was aliquoted and cryopreserved at − 80 °C until analysis. Levels of DMX-10001 and DMX-5804 were determined by liquid chromatography–mass spectrometry (Pharmidex, London, UK). Porcine hFABP was analyzed as described: plasma samples were thawed on ice, diluted 10 × using the standard diluent provided with the kit, and analyzed by enzyme-linked immunosorbent assays according to the manufacturer’s instructions (Life Diagnostics, West Chester, PA). Absorbance was measured at 450 nm with a microplate photometer (Multiskan EX, Thermo Scientific, Etten-Leur, The Netherlands).

[5] = biological target: MAP4K4 (Homo sapiens, UniProt O95819); assay: cell-free biochemical assay, MAP4K4 inhibition; settings: cell-free biochemical assays; read-out: IC50 against MAP4K4
Text: DMX-10001, a rapidly hydrolyzed phosphate pro-drug of DMX-5804, was produced by Domainex Ltd, by a modification of the latter’s synthetic route, attaching a hydrolysable phosphate group via a linker to the core of DMX-5804 (Fig. 1a). This removes a key hydrogen bonding group and prevents DMX-10001 from binding to the hinge region of the MAP4K4 kinase domain. […] Furthermore, this modest value is likely driven by minute levels of DMX-5804 either present in the sample or generated during by hydrolysis during the assay.

[6] = test system: mouse myocardial infarction; set-up: method as in PMID 30853557; settings: mice, even given an hour after reperfusion; cited from earlier work
[7] = set-up: method as in PMID 30853557; settings: mice, twice daily oral dosing of DMX-5804; cited from earlier work
[8] = aqueous solubility; format: physicochemical
Protocol: The chemical structures of DMX-5804 and DMX-10001 are compared in Fig. 1a, highlighting the phosphate moiety of the pro-drug. The aqueous solubility of DMX-10001 was > 400-fold greater than that of DMX-5804, allowing it to be infused i.v. without prohibitive fluid volumes. Cleavage to DMX-5804 was detectable in rats within 5 min and largely complete within 60 min (Fig. 1b). Data from i.v. infusion at a range of dose levels in the pig were simultaneously fit to a three-compartment pharmacokinetic model. Plasma protein binding in pig was used to determine free drug levels (not shown). Various dosing regimens were simulated to avoid an initial spike in DMX-5804 whilst rapidly achieving the efficacious drug levels seen in mice after oral gavage (Fig. 1c).

[9] = test system: humans; settings: cited from earlier work; for cardioprotection in human trials: 16 (TRO40303), 5, 20 (cyclosporine), 21, 29 (cariporide)
[10] = test system: pigs; settings: cited from earlier work; for cardioprotection findings in pigs: 16 (TRO40303), 5, 20 (cyclosporine), 21, 29 (cariporide)
[11] = pigs, pro-drug DMX-10001 infusion (60 mg/kg/h 0.5 h + 17 mg/kg/h 23.5 h)

MAP4K4, sequence (O95819 whole entry, species assumed, the tested form may be a part): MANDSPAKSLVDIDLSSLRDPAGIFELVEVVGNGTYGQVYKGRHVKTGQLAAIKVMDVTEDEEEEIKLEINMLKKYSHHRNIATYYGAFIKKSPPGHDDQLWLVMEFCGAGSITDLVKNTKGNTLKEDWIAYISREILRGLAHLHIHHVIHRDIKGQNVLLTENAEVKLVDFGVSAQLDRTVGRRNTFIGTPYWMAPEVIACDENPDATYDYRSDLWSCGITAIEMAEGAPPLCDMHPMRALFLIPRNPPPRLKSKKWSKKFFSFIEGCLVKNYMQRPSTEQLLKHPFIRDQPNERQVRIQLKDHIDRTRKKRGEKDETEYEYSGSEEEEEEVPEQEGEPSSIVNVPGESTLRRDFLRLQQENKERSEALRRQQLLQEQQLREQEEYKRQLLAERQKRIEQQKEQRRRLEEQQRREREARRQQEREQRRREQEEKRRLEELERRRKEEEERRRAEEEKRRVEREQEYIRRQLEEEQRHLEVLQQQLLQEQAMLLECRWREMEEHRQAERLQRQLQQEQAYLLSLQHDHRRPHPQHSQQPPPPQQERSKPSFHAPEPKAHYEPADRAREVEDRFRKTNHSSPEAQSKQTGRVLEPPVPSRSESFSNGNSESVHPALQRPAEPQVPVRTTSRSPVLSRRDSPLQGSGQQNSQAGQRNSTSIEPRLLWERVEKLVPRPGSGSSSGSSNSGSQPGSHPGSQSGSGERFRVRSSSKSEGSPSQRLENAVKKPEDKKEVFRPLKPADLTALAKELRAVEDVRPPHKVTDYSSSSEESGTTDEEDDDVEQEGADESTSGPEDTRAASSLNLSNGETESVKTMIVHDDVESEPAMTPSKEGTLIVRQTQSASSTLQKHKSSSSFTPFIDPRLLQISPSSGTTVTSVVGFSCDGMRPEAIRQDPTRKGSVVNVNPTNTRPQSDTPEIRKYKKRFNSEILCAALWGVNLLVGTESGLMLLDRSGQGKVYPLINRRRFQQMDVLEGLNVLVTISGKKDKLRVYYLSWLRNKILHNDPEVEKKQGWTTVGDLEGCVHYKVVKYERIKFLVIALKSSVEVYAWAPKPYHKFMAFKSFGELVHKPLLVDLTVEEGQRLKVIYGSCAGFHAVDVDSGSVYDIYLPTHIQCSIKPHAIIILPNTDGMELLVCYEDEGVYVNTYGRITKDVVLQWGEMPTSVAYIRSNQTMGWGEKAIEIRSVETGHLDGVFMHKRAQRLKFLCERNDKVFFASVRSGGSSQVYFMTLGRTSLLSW

## COCCOc1ccc(-c2cn(-c3ccccc3)c3nc[nH]c(=O)c23)cc1 [DMX-5804]
[1]
  death from oxidative stress in hPSC-CMs: suppressed death from oxidative stress
[1]; vCor.4U cells treated with 400 μM H2O2, read-out: EC50 for reducing cell death
  EC50: 500 nM
[2]
  cell death in engineered human heart tissue: blocked cell death
[3]
  selectivity among 376 kinases: interfering potently just with MINK1/MAP4K6 and TNIK/MAP4K7
[4]; after infusion with DMX-10001
  target level of DMX-5804, based on successful reduction of IS in mice: achieved in all animals
[4]; at the corresponding times after injury
  levels of DMX-5804 generated in pigs relative to those in mice: at least tenfold
[4]; [11]
  free AUC0-24 of DMX-5804: 27,900 h.nM
  free Cav of DMX-5804: 1,160 nM
[4]; swine, all times tested beginning 30 min after the start of DMX-10001 infusion
  DMX-5804 concentrations relative to the levels that rescued hPSC-CMs and reduced IS in mice: > fivefold
[5]
  IC50: 3 nM
[6]
  reduction of infarct size (IS): 50% and > 50%
[7]
  free AUC0–22 of DMX-5804: 2,200 h.nM
[8]
  aqueous solubility: inadequate for i.v. delivery

## CC(C)CCC[C@@H](C)[C@H]1CC[C@H]2[C@@H]3CC/C(=N\O)[C@](C)(CCCO)[C@H]3CC[C@]12C [TRO40303]
[9]
  cardioprotection in human trials: failures of cardioprotection
[10]
  cardioprotection findings in pigs: weak or negative findings

## Nc1ncnc2c1ncn2[C@@H]1O[C@H](CO)[C@@H](O)[C@H]1O [adenosine]
[10]; bolus
  protection in swine: gave no protection

## CC(C)c1ccc(C(=O)NC(=N)N)cc1S(C)(=O)=O [cariporide]
[9]
  cardioprotection in human trials: failures of cardioprotection
[10]
  cardioprotection findings in pigs: weak or negative findings

## liraglutide
[9]
  myocardial salvage in humans: improved myocardial salvage
[10]
  results in pigs: negative results

From publication PMC8137473, “Preclinical trial of a MAP4K4 inhibitor to reduce infarct size in the pig: does cardioprotection in human stem cell-derived myocytes predict success in large mammals?” (Basic Research in Cardiology, 2021)
